# Columns and labels:
# [1] = system: Candida tropicalis; test: Antifungal activity against Candida tropicalis after 18 hr by broth microdilution technique; type: functional
# [2] = system: Bacillus subtilis; test: Antibacterial activity against Bacillus subtilis after 18 hr by broth microdilution technique; type: functional
# [3] = system: Escherichia coli; test: Antibacterial activity against Escherichia coli after 18 hr by broth microdilution technique; type: functional
# [4] = system: Mycobacterium tuberculosis; test: Antimycobacterial activity against Mycobacterium tuberculosis H37Rv after 21 days by broth dilution method; type: functional; settings: 504 h
# [5] = system: Klebsiella pneumoniae; test: Antibacterial activity against Klebsiella pneumoniae after 18 hr by broth microdilution technique; type: functional
# [6] = system: A549; test: Cytotoxicity against Homo sapiens (human) A549 cells after 72 hr by MTT assay; type: cell-based; settings: A549, 72 h
# [7] = system: Vero; test: Cytotoxicity against Chlorocebus aethiops (African green monkey) Vero cells after 72 hr by MTT assay; type: cell-based; settings: Chlorocebus sabaeus
# [8] = system: Pseudomonas aeruginosa; test: Antibacterial activity against Pseudomonas aeruginosa after 18 hr by broth microdilution technique; type: functional
# [9] = system: Saccharomyces cerevisiae; test: Antifungal activity against Saccharomyces cerevisiae after 18 hr by broth microdilution technique; type: functional
# [10] = system: Aspergillus niger; test: Antifungal activity against Aspergillus niger after 18 hr by broth microdilution technique; type: functional
# [11] = system: Enterococcus faecalis; test: Antibacterial activity against Enterococcus faecalis after 18 hr by broth microdilution technique; type: functional
# [12] = system: Staphylococcus aureus; test: Antibacterial activity against Staphylococcus aureus after 18 hr by broth microdilution technique; type: functional
SMILES,MIC [1] [µg/mL],MIC [2] [µg/mL],MIC [3] [µg/mL],MIC [4] [µg/mL],MIC [5] [µg/mL],IC50 [6] [µM],IC50 [7] [µM],MIC [8] [µg/mL],MIC [9] [µg/mL],MIC [10] [µg/mL],MIC [11] [µg/mL],MIC [12] [µg/mL]
O=C(NNC(=O)c1ccc(-n2cccc2)cc1)c1ccc(Cl)cc1,8,16,16,8,> 500,185,179,16,31.2,31.2,31.2,62.5
CC(C)=NNC(=O)c1ccc(-n2c(C)ccc2C)cc1,31.2,16,500,31.2,500,–,–,500,62.5,62.5,31.2,31.2
C/C(=N/NC(=O)c1ccc(-n2c(C)ccc2C)cc1)c1ccccc1,62.5,16,500,31.2,500,–,–,500,62.5,62.5,31.2,62.5
Cc1ccc(C)n1-c1ccc(C(=O)NN=C(c2ccccc2)c2ccccc2)cc1,62.5,31.2,500,31.2,500,–,–,500,62.5,62.5,31.2,62.5
C/C(=N/NC(=O)c1ccc(-n2c(C)ccc2C)cc1)c1ccc(N)cc1,62.5,62.5,500,31.2,500,–,–,500,62.5,62.5,62.5,31.2
Cc1ccc(C)n1-c1ccc(C(=O)N/N=C/c2ccccc2)cc1,31.2,31.2,62.5,31.2,62.5,–,–,62.5,62.5,31.2,62.5,31.2
Cc1ccc(C)n1-c1ccc(C(=O)N/N=C/c2ccccc2Cl)cc1,8,8,500,16,62.5,–,–,500,31.2,16,31.2,16
Cc1ccc(C)n1-c1ccc(C(=O)N/N=C/c2ccc(Br)cc2)cc1,8,16,500,16,500,–,–,> 500,31.2,16,31.2,16
Cc1ccc(C)n1-c1ccc(C(=O)N/N=C/c2c(Cl)cccc2Cl)cc1,4,16,500,16,500,–,–,500,31.2,4,16,16
Cc1ccc(C)n1-c1ccc(C(=O)N/N=C/c2cccc([N+](=O)[O-])c2)cc1,16,31.2,500,62.5,500,–,–,500,31.2,16,31.2,31.2
Cc1ccc(C)n1-c1ccc(C(=O)N/N=C/c2ccccc2[N+](=O)[O-])cc1,16,31.2,> 500,62.5,> 500,–,–,> 500,31.2,16,31.2,62.5
O=C(O)c1cn(C2CC2)c2cc(N3CCNCC3)c(F)cc2c1=O [CIPROFLOXACIN],–,≤ 1,≤ 1,–,≤ 1,–,–,> 5,–,–,< 5,< 5
OC(Cn1cncn1)(Cn1cncn1)c1ccc(F)cc1F [FLUCONAZOLE],≤ 1,–,–,–,–,–,–,–,≤ 1,≤ 1,–,–
NNC(=O)c1ccncc1 [ISONIAZID],–,–,–,0.25,–,> 450,> 450,–,–,–,–,–
CCn1cc(C(=O)O)c(=O)c2cc(F)c(N3CCNCC3)cc21 [NORFLOXACIN],–,≤ 1,≤ 1,–,≤ 1,–,–,> 5,–,–,< 5,< 5
